Non-standard residues stand in square brackets, D forms with d. Residues, ends and D or L forms follow the SMILES beside them. pY = N[C@@H](Cc1ccc(OP(=O)(O)O)cc1)C(=O)O

For the assay, the target named is T1, SH3BP2 (Homo sapiens, UniProt P78314).
T1 construct: made in house; host or cells: HEK293 (transient transfection), unpurified extract
T1 sequence (P78314 1-561): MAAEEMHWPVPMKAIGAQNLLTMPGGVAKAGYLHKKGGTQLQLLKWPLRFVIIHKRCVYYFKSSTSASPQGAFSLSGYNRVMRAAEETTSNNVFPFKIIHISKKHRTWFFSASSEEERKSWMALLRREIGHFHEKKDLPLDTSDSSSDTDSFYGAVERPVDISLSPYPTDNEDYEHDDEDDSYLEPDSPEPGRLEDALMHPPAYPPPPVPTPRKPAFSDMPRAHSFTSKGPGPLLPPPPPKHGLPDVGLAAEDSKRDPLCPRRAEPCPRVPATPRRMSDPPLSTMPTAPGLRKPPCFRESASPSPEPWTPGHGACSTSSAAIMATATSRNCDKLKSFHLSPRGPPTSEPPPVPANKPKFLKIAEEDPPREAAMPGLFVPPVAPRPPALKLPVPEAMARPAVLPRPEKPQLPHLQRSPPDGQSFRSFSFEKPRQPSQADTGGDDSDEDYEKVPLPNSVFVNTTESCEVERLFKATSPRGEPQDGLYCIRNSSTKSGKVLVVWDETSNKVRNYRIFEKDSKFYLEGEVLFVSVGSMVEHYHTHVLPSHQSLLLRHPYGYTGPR
Kind of assay: biochemical. Format: binding.

As for `CC[C@H](C)[C@H](NC(=O)[C@H](CO)NC(=O)[C@H](CC(C)C)NC(=O)[C@H](CCCNC(=N)N)NC(=O)[C@H](CO)NC(=O)[C@H](CS)NC(C)=O)C(=O)N[C@@H](Cc1ccc(OP(=O)(O)O)cc1)C(=O)N[C@@H](CC(=O)O)C(=O)N[C@@H](CC(N)=O)C(=O)N[C@H](C(=O)N1CCC[C@H]1C(=O)NCC(N)=O)C(C)C` [Ac-CSRLSIpYDNVPG-NH2] (Ac-CSRLSI[pY]DNVPG-NH2), binding was characterised by a dissociation constant (Kd) of 209 ± 10.1 nM.
